Data from ChEMBL document CHEMBL1147027, “The role of fluorine substitution in the structure-activity relationships (SAR) of classical cannabinoids” (2007).

Key:
Mus musculus [1] = species on record: Mus musculus; assay: Effect on behavioral activity in mouse assessed as spontaneous activity by tetrad test; type: functional
[2] = molecular target: Cannabinoid receptor 1 (Homo sapiens) (UniProt P21554); assay: Binding affinity to CB1 receptor
Mus musculus [3] = species on record: Mus musculus; assay: Effect on behavioral activity in mouse assessed as rectal temperature by tetrad test; type: functional
Mus musculus [4] = species on record: Mus musculus; assay: Effect on behavioral activity in mouse assessed as tail flick by tetrad test; type: functional
Mus musculus [5] = assay: Effect on behavioral activity in intrathecally dosed mouse assessed as tail flick by tetrad test; type: functional
[6] = molecular target: Cannabinoid receptor 2 (Homo sapiens) (UniProt P34972); assay: Binding affinity to CB2 receptor
Mus musculus [7] = assay: Effect on behavioral activity in intrathecally dosed mouse assessed as tail flick by tetrad test at 100 mg/kg; type: functional
Mus musculus [8] = assay: Effect on behavioral activity in mouse assessed as tail flick by tetrad test at 30 mg/kg; type: functional
Mus musculus [9] = assay: Effect on behavioral activity in mouse assessed as rectal temperature by tetrad test at 30 mg/kg; type: functional
Mus musculus [10] = assay: Effect on behavioral activity in mouse assessed as spontaneous activity by tetrad test at 30 mg/kg; type: functional

Cannabinoid receptor 2 (Homo sapiens), sequence (P34972 whole entry): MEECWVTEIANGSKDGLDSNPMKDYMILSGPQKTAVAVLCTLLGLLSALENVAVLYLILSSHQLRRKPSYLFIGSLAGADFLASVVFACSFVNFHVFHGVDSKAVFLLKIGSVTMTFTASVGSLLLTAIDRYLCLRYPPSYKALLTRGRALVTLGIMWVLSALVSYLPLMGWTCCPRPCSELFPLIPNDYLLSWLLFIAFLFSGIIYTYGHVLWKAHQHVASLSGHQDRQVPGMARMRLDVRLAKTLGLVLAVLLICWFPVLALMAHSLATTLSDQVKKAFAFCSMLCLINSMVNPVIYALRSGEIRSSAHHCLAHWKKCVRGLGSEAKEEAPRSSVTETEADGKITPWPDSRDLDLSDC
Cannabinoid receptor 1 (Homo sapiens), sequence (P21554 whole entry): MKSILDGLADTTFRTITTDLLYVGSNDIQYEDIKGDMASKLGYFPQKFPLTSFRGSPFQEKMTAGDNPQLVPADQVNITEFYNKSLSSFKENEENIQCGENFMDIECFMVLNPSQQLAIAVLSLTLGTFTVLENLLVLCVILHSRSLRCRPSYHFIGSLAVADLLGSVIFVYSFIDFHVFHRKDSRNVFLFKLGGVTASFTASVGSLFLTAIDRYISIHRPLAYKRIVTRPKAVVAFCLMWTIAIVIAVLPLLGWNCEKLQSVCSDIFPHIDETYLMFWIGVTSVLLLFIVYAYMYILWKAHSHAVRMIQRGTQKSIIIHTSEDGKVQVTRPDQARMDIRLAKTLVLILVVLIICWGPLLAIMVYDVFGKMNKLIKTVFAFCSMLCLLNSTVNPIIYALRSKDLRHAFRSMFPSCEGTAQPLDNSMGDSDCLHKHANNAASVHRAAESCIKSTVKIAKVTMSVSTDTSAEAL

CCCCCC#Cc1cc(O)c2c(c1)OC(C)(C)[C@@H]1CC=C(C)C[C@@H]21
ED50 (Mus musculus [1]): 3.68 mg/kg
Activity [2]: 36 nM
ED50 (Mus musculus [3]): 2.96 mg/kg
ED50 (Mus musculus [4]): 3.24 mg/kg

CCCCCc1cc(O)c2c(c1)OC(C)(C)[C@@H]1CCC(C)=C[C@@H]21 [DRONABINOL]
Activity (Mus musculus [5]): 29 µg
ED50 (Mus musculus [1]): 1 mg/kg
ED50 (Mus musculus [3]): 1.4 mg/kg
ED50 (Mus musculus [4]): 1.4 mg/kg

CCCCC/C=C/c1cc(F)c2c(c1)OC(C)(C)[C@@H]1CC=C(C)C[C@@H]21
Activity [6]: 40 nM
Activity [2]: 285 nM

CCCCCCCc1cc(F)c2c(c1)OC(C)(C)[C@@H]1CC=C(C)C[C@@H]21
Activity [6]: 1510 nM
Activity (Mus musculus [7]): 36%
ED50 (Mus musculus [1]): 31.1 mg/kg
Activity [2]: 1560 nM
ED50 (Mus musculus [3]): 6.9 mg/kg
ED50 (Mus musculus [4]): 21.5 mg/kg

CCCCC/C=C/c1cc(O)c2c(c1)OC(C)(C)[C@@H]1CC=C(C)C[C@@H]21
ED50 (Mus musculus [1]): 0.09 mg/kg
Activity [2]: 0.86 nM
ED50 (Mus musculus [3]): 0.13 mg/kg
ED50 (Mus musculus [4]): 0.09 mg/kg

CCCCCC#Cc1cc(F)c2c(c1)OC(C)(C)[C@@H]1CC=C(C)C[C@@H]21
Activity (Mus musculus [5]): 156.9 µg
Activity (Mus musculus [8]): 4%
Activity [6]: > 4550 nM
Activity (Mus musculus [9]): -2.2 °C
Activity (Mus musculus [10]): 8%
Activity [2]: > 10000 nM
